Consider 55 molecules from ChEMBL document CHEMBL1156829 (Proc Natl Acad Sci U S A, 2008).

Series [1] relates to Plasmodium falciparum. Put plainly: NOVARTIS: Inhibition of Plasmodium falciparum 3D7 (drug-susceptible) proliferation in erythrocyte-based infection assay. Type of series: functional, organism-based. The settings on record: Plasmodium falciparum, 3D7.
Series [2] relates to Plasmodium falciparum. Briefly: NOVARTIS: Inhibition of Plasmodium falciparum W2 (drug-resistant) proliferation in erythrocyte-based infection assay. Type of series: functional, organism-based. Particulars: Plasmodium falciparum, W2; read-out: EC50.
A short description of series [3]: NOVARTIS: Cytotoxicity against human hepatocellular carcinoma cell line (Huh7). Type of series: toxicity, cell-based, Huh-7. The settings on record: Huh7 cells (hepatocellular carcinoma cell line).

Molecules are shown by their SMILES.

With `CN1C=CC=CC1=CC=C1C=Nc2ccccc21`, the EC50 worked out at 236 nM with Plasmodium falciparum [1] and 232 nM in the series with Plasmodium falciparum [2]. In addition, the half-maximal cytotoxic concentration (CC50) in series [3] was 20900 nM.
In the case of `COc1cccc(/C=C2\SC(=Nc3ccccc3)NC2=O)c1OC`, the figures for the EC50 in the series with Plasmodium falciparum [1] and with Plasmodium falciparum [2] were 521 nM and 1100 nM, respectively. This molecule also yielded a CC50 in series [3] of more than 100000 nM.
For the molecule `NN1C(=O)NC(=O)C1Nc1cccc([N+](=O)[O-])c1` (stereo not given), the EC50 was found to be 976 nM with Plasmodium falciparum [1] and 139 nM in the series with Plasmodium falciparum [2]. Moreover, the CC50 in series [3] was more than 12700 nM.
`COc1cc(OC)cc(C(=O)Nc2cc(C(=O)N3CCC(Cc4ccccc4)CC3)ccc2N2CC3CC(C2)c2cccc(=O)n2C3)c1` (stereo not given): the results for the 50% effective concentration (EC50) in the series with Plasmodium falciparum [1] and in the series with Plasmodium falciparum [2] were 1870 nM and 548 nM, respectively. Further, in series [3], half-maximal cytotoxicity (CC50) was put at 50300 nM.
As to `O=C1CSc2ccccc2N1`, the EC50 was more than 10600 nM in the series on Plasmodium falciparum [1] and 1080 nM with Plasmodium falciparum [2]. Besides, the CC50 in series [3] is more than 100000 nM.
For `CN1CCC(NCCc2ccc(Cl)cc2)CC1`, in that order: 909 nM, 210 nM and 18900 nM.
For `OC(CNC1CCCCC1)Cn1c2ccccc2c2ccccc21` (stereo not given), in that order: 483 nM, 198 nM and 18000 nM.
`Cn1nc(C(F)(F)F)c(-c2ccc(F)cc2)c1NC(=O)Nc1ccc(F)cc1`: the concentration for a half-maximal effect (EC50) in the series on Plasmodium falciparum [1] is 241 nM; in the series on Plasmodium falciparum [2] it was 254 nM. Moreover, in series [3], the 50% cytotoxic concentration (CC50) is 23600 nM.
For the molecule `COc1ccc(C=NNc2cc(C)nc3ccccc23)cc1`, the EC50 in the series on Plasmodium falciparum [1] was 228 nM; with Plasmodium falciparum [2] it was 207 nM. Further, it took 18900 nM to reach half-maximal cytotoxicity in series [3] (CC50).
Consider `CC1CCN(S(=O)(=O)c2ccc(C(=O)NCc3ccco3)cc2)CC1`, for which the EC50 in the series with Plasmodium falciparum [1] came to 894 nM; with Plasmodium falciparum [2], 1090 nM. The CC50 in series [3] is more than 100000 nM.
`O=C(C1CC1)N1CCc2cc(Br)cc(S(=O)(=O)N3CCCC3)c21`: the EC50 in the series on Plasmodium falciparum [1] was found to be 929 nM; with Plasmodium falciparum [2], 1120 nM. Also, in series [3], the CC50 is more than 100000 nM.
With `CCc1ccc(NC(=O)COC(=O)c2cccs2)cc1`, the values for the EC50 with Plasmodium falciparum [1] and in the series with Plasmodium falciparum [2] were 4640 nM and 1110 nM, respectively. The same molecule registered a CC50 in series [3] of more than 100000 nM.
On to `Fc1ccc(CCNc2ncnc3c2[nH]c2ccccc23)cc1`, for which the values for the EC50 with Plasmodium falciparum [1] and in the series with Plasmodium falciparum [2] were 257 nM and 133 nM, respectively. Further, in series [3], the CC50 turned out to be 12000 nM.
The corresponding values for `CC(C)(C)C(=O)NCCNc1ccc([N+](=O)[O-])cc1C(F)(F)F` are 2260 nM, 1110 nM and more than 100000 nM.
Take `CCCCCCCCCCOC(=O)Cn1c(C)[n+](C)c2ccccc21`: the EC50 is more than 12500 nM in the series with Plasmodium falciparum [1] and 644 nM with Plasmodium falciparum [2]. In series [3], this molecule gave a CC50 of 58100 nM.
For the molecule `O=C(NCCCN1CCOCC1)c1c[nH]c2ccc(S(=O)(=O)N3CCc4ccccc43)cc2c1=O`, the EC50 amounted to 610 nM in the series with Plasmodium falciparum [1] and 1110 nM with Plasmodium falciparum [2]. Moreover, the CC50 in series [3] is more than 100000 nM.
The corresponding values for `CC(=O)N(C1=C(N2CCCC2)C(=O)c2ccccc2C1=O)c1cccc(F)c1` are 406 nM, 323 nM and 29000 nM.
For `CCC(=O)Nc1ccc2nc(SCC(=O)Nc3ccc(C(C)=O)cc3)sc2c1`, in that order: more than 12500 nM, 1110 nM and more than 100000 nM.
On to `COCCN(Cc1cc2ccc(F)cc2nc1N1CCCCCC1)C(=O)c1ccoc1`, for which the EC50 was determined as 5200 nM in the series with Plasmodium falciparum [1] and 1110 nM in the series on Plasmodium falciparum [2]. This molecule also displayed a CC50 in series [3] of more than 100000 nM.
Regarding `COc1ccc(C2C(C(C)=O)=C(O)C(=O)N2CCCn2ccnc2)c(OC)c1` (stereo not given), the EC50 in the series on Plasmodium falciparum [1] was 4480 nM; in the series with Plasmodium falciparum [2], 1110 nM. In series [3], the CC50 was more than 100000 nM.
As to `Nc1nonc1-n1nnc(C(=O)NN=Cc2cc(Br)cs2)c1-c1ccccc1`, the EC50 in the series on Plasmodium falciparum [1] is 692 nM; in the series on Plasmodium falciparum [2] it was 1100 nM. Further, in series [3], the CC50 is more than 100000 nM.
The corresponding values for `COc1ccc(S(=O)(=O)N2CCC(c3nnc(-c4ccccc4OC)o3)CC2)cc1` are 2300 nM, 1100 nM and more than 100000 nM.
Consider `O=C1CC(c2ccc([N+](=O)[O-])cc2)C2=C(CC(c3ccc(F)cc3)CC2=O)N1` (stereo not given), for which the EC50 came out at 2020 nM in the series on Plasmodium falciparum [1] and 1070 nM with Plasmodium falciparum [2]. Further, the CC50 in series [3] was more than 100000 nM.
The corresponding values for `Fc1ccc(CN2CCc3nc(N4CCCCC4)sc3C2)cc1F` are 1100 nM, 1070 nM and more than 100000 nM.
For `O=c1nc(C=Cc2ccc(Cl)cc2)oc2ccccc12`, in that order: 1100 nM, 1060 nM and more than 100000 nM.
For `CCOC(=O)N1CCC(n2c(SCC(=O)N3CCCCCC3)nc3ccccc3c2=O)CC1`, in that order: 7340 nM, 1090 nM and more than 100000 nM.
With `CCCCc1ccc(C(=O)Oc2ccccc2-c2nc3cc(C)ccn3c2NC(C)(C)CC(C)(C)C)cc1`, the EC50 in the series on Plasmodium falciparum [1] stood at 616 nM; with Plasmodium falciparum [2], 107 nM. The CC50 in series [3] was more than 10000 nM.
The corresponding values for `Nc1c(C(=O)Nc2ccc(C3=NCCN3)cc2)cccc1C(=O)Nc1ccc(C2=NCCN2)cc1` are 259 nM, 107 nM and more than 10000 nM.
For `CCC(C)(C)n1nnnc1C(c1cc2cc(C)cc(C)c2[nH]c1=O)N1CCN(c2ccc(O)cc2)CC1` (stereo not given), in that order: 2440 nM, 1070 nM and more than 100000 nM.
For the molecule `Fc1ccc(-c2c[n+](-c3ccccc3)c3n2CCS3)cc1`, the EC50 was determined as 764 nM with Plasmodium falciparum [1] and 1070 nM in the series on Plasmodium falciparum [2]. This molecule came in with a CC50 in series [3] of more than 100000 nM.
The corresponding values for `COc1ccc(CN2CCC(C(=O)Nc3ccc(Oc4cccnc4)cc3)CC2)cc1` are 2220 nM, 640 nM and 59400 nM.
`CC(=O)N(C1=C(N2CCOCC2)C(=O)c2ccccc2C1=O)c1ccc(I)cc1`: the values for the EC50 in the series with Plasmodium falciparum [1] and in the series with Plasmodium falciparum [2] were 73.7 nM and 108 nM, respectively. The molecule also displayed a CC50 in series [3] of 10000 nM.
For `COc1ccccc1Nc1nc(NCc2ccccc2)c2ccccc2n1`, in that order: 312 nM, 212 nM and 19600 nM.
The corresponding values for `Cc1ccc(C#N)c(SCc2nnc(-c3ccc(Cl)cc3)o2)n1` are more than 1250 nM, 108 nM and more than 10000 nM.
For the molecule `Sc1nnc(-c2ccncc2)n1CCc1ccccc1`, the EC50 is more than 7490 nM in the series with Plasmodium falciparum [1] and 1080 nM in the series with Plasmodium falciparum [2]. In addition, in series [3], the CC50 is more than 100000 nM.
Take `CCCCCN(CCCCC)C(O)c1cc2c(c3ccccc13)CCCC2` (stereo not given): the EC50 with Plasmodium falciparum [1] came to 58.2 nM; in the series on Plasmodium falciparum [2], 377 nM. Besides, it took 35400 nM to reach half-maximal cytotoxicity in series [3] (CC50).
For `COc1ccc(-[n+]2cc(-c3ccc(Cl)cc3)n3c2SCCC3)cc1`, in that order: 673 nM, 1060 nM and more than 100000 nM.
`Cc1ccc(-c2cc(C(=O)OCC(=O)c3cccc([N+](=O)[O-])c3)c3cc(C)ccc3n2)cc1`: the figures for the EC50 in the series with Plasmodium falciparum [1] and with Plasmodium falciparum [2] were more than 12500 nM and 1090 nM, respectively. In series [3], this molecule had a CC50 of more than 100000 nM.
In the case of `CCC(C)(C)c1ccc(OCC(O)CNCc2ccccc2)c(C(C)(C)CC)c1` (stereo not given), the half-maximal effective concentration (EC50) in the series on Plasmodium falciparum [1] was determined as 361 nM; with Plasmodium falciparum [2], 100 nM. The midpoint of cytotoxicity in series [3], the CC50, lay at 9200 nM.
Turning to `O=C1C2C(C(=O)N1c1cccc3ccccc13)C1C=CC2C12CC2` (stereo not given), the EC50 amounted to 6590 nM with Plasmodium falciparum [1] and 1090 nM in the series on Plasmodium falciparum [2]. Besides, the CC50 in series [3] is more than 100000 nM.
For `O=C(NC1CC1)C1CCN(c2cccc3c2C(=O)N(Cc2cccc(C(F)(F)F)c2)C3=O)CC1`, in that order: 2160 nM, 1110 nM and more than 100000 nM.
`CCCCN(CCCC)S(=O)(=O)c1cc(Br)cc2c1N(C(C)=O)CC2`: the 50% effective concentration (EC50) in the series with Plasmodium falciparum [1] was 3290 nM; with Plasmodium falciparum [2] it was 1090 nM. Moreover, the CC50 in series [3] is more than 100000 nM.
Consider `O=C1CC(c2ccccc2)CC2=C1C(c1ccccc1[N+](=O)[O-])Nc1ccccc1N2` (stereo not given), for which the results for the EC50 in the series on Plasmodium falciparum [1] and in the series with Plasmodium falciparum [2] were 3470 nM and 1110 nM, respectively. For the same molecule, the CC50 in series [3] is more than 100000 nM.
Turning to `COc1ccccc1N1C(=N)SC(=Cc2ccc(OCc3ccccc3F)cc2)C1=O`, the EC50 came to 422 nM with Plasmodium falciparum [1] and 1080 nM in the series with Plasmodium falciparum [2]. The molecule also returned a CC50 in series [3] of more than 100000 nM.
The corresponding values for `CC(=O)Nc1ccc2c(c1)C(=O)N(C(C(=O)NCC(=O)O)C1CCCCC1)[C@@H](CCC(=O)O)C(=O)N2` (stereo not given in full) are more than 418 nM, 109 nM and more than 10000 nM.
For `O=C(COc1ccc(Cl)cc1)N1CCCn2cccc2C1c1ccc(Cl)cc1` (stereo not given), in that order: 631 nM, 108 nM and more than 10000 nM.
For `CCc1ccc(NC(=O)c2sc3nc4c(c(-c5ccco5)c3c2N)CCCC4)cc1`, the EC50 is 1820 nM with Plasmodium falciparum [1] and 1070 nM in the series on Plasmodium falciparum [2]. For the same molecule, the CC50 in series [3] was more than 100000 nM.
Take `CC(C)(C)c1ccc(C(=O)C[n+]2cc(-c3ccccc3)n3c2CCC3)cc1`: the EC50 was found to be 1140 nM with Plasmodium falciparum [1] and 470 nM in the series with Plasmodium falciparum [2]. This molecule also came in with a CC50 in series [3] of 43000 nM.
The corresponding values for `O=C1CSc2nc3ccccc3n21` are 7920 nM, 1060 nM and more than 100000 nM.
As to `Cc1cccc(CCNc2cc(C)nc3ncnn23)c1`, the EC50 with Plasmodium falciparum [1] worked out at 841 nM; in the series with Plasmodium falciparum [2], 1080 nM. Further, the CC50 in series [3] is more than 100000 nM.
For `NCC(c1ccc(F)cc1)c1ccc(F)cc1`, in that order: more than 345 nM, 99.8 nM and more than 9210 nM.
`CC(C)c1ccc(NC(=O)/C=C/c2ccccc2Cl)cc1`: the EC50 in the series on Plasmodium falciparum [1] worked out at 186 nM; in the series with Plasmodium falciparum [2] it was 109 nM. Also, the CC50 in series [3] was more than 10000 nM.
`CC[n+]1c(C=C2C=CN(C)C=C2)ccc2cc(C)ccc21`: the values for the EC50 in the series on Plasmodium falciparum [1] and in the series on Plasmodium falciparum [2] were 388 nM and 286 nM, respectively. The CC50 in series [3] is more than 26800 nM.
The corresponding values for `COc1ccc(C=CC(=O)Nc2ccncc2)cc1OC` are 358 nM, 1070 nM and more than 100000 nM.
For `CCOC(=O)c1sc(NC(=O)C(C)Sc2nnc(CNC(=O)c3cccc(F)c3)n2-c2cccc(C)c2)c(C(=O)OCC)c1C` (stereo not given), in that order: more than 12500 nM, 1100 nM and more than 100000 nM.

By EC50 is commonly meant the concentration at which the effect is half-maximal. By CC50 is commonly meant the concentration that lowers cell viability or growth by half.
